Reference: patent publication US7722890B2, “Synthetic anti-Candida albicans oligosaccharide based vaccines” (Theracarb, Inc., priority 2002, dated 2010)

Key:
MAb C3.1 (IgG3) = experiment: competitive inhibition ELISA: binding of IgG MAb C3.1 to C. albicans mannan extract; set-up: species or system mouse
Procedure: These monoclonal antibodies are IgM B6.1 and IgG C3.1. The affinity of these monoclonal antibodies for the synthesized propyl glycosides was determined in a competitive inhibition ELISA. The monoclonal antibodies, MAb B6.1 (IgM) and MAb C3.1 (IgG3) were produced as concentrated tissue culture supernatants and diluted ˜1:40,000 (B6.1) and ˜1:2000 (C3.1). C. albicans mannan obtained by 2-mercaptoethanol extraction of whole cells without subsequent affinity fractionation^27 was dissolved in PBS (10 μg/mL) and the solution was used to coat 96 well ELISA plates (100 μL, 18 h at 4° C.). The plate was washed five times with PBST containing Tween 20, 0.05% v/v) and blocked for 1 h at room temperature (2% BSA PBS, 100 μL). The monoclonal antibodies were mixed with inhibitor dissolved in PBST at concentrations in the range between 0.1 μM to 1 mM, and the resulting solutions were added to the coated microtitre plate in triplicate and incubated at room temperature for 18 h. The plate was washed with PBST (5×), and goat anti-mouse (IgG or IgM) antibody conjugated to horseradish peroxidase (diluted 1:2000, Kirkegaard and Perry Lab) in PBST (100 μL) was added and incubated for 1 h at room temperature. […]

[1] = system: IgM monoclonal antibody B6.1; experiment: competitive inhibition ELISA: binding of IgM MAb B6.1 to C. albicans mannan extract; set-up: species or system mouse; details: FIG. 7
Procedure: These monoclonal antibodies are IgM B6.1 and IgG C3.1. The affinity of these monoclonal antibodies for the synthesized propyl glycosides was determined in a competitive inhibition ELISA. The monoclonal antibodies, MAb B6.1 (IgM) and MAb C3.1 (IgG3) were produced as concentrated tissue culture supernatants and diluted ˜1:40,000 (B6.1) and ˜1:2000 (C3.1). C. albicans mannan obtained by 2-mercaptoethanol extraction of whole cells without subsequent affinity fractionation^27 was dissolved in PBS (10 μg/mL) and the solution was used to coat 96 well ELISA plates (100 μL, 18 h at 4° C.). The plate was washed five times with PBST containing Tween 20, 0.05% v/v) and blocked for 1 h at room temperature (2% BSA PBS, 100 μL). The monoclonal antibodies were mixed with inhibitor dissolved in PBST at concentrations in the range between 0.1 μM to 1 mM, and the resulting solutions were added to the coated microtitre plate in triplicate and incubated at room temperature for 18 h. The plate was washed with PBST (5×), and goat anti-mouse (IgG or IgM) antibody conjugated to horseradish peroxidase (diluted 1:2000, Kirkegaard and Perry Lab) in PBST (100 μL) was added and incubated for 1 h at room temperature. The plate was washed with PBST (5×), 3,3′,5,5′-tetramethylbenzidine (TMB, 100 μL, Kirkegaard and Perry Lab) was added, and after 2 minutes the colour reaction was stopped by the addition of 1M phosphoric acid (100 μL). Absorbance was read at 450 nm and percent inhibition was calculated relative to wells containing antibody without inhibitor, and the concentration of ligand that gives 50% inhibition is quoted as an IC50 value.

Molecule | affinity / inhibition curve for the IgG antibody (MAb C3.1 (IgG3); FIG. 8) | affinity of IgM antibody B6.1 for propyl mannosides [1] | affinity for the IgG antibody relative to the IgM MAb (MAb C3.1 (IgG3); FIG. 8 vs FIG. 7)
CCCO[C@@H]1O[C@H](CO)[C@@H](O)[C@H](O)[C@@H]1O[C@@H]1O[C@H](CO)[C@@H](O)[C@H](O)[C@@H]1O [compound 17] | flattened binding curve | surprisingly high affinity | –
CCCOC1OC(CO)C(O)C(O)C1OC1OC(CO)C(O)C(O)C1OC1OC(CO)C(O)C(O)C1O (centres unmarked) [compound 18] | – | surprisingly high affinity | two fold
propyl (1-thio-β-D-mannopyranosyl)-(1→2)-β-D-mannopyranotrioside [compound 32] | – | falls between the tri and tetrasaccharide in affinity | –
